Results reported in patent US6821980B1, “Substituted 5-benzyl-2,4-diaminopyrimidines” (Basilea Pharmaceutica AG, priority 1999, dated 2004).
Converted amounts (≈) assume the structure as drawn. Where two headings read alike, the source gives them in different places.

Assays:
[1] = tested on: Streptococcus pneumoniae 1/1; test: MIC against Streptococcus pneumoniae 1/1; format: cell-based; conditions: Table 2, Streptococcus pneumoniae 1/1, trimethoprim- and penicillin-resistant, serotype 6, clinical isolate; for MIC: read-out: MIC Sp1/1
[2] = tested on: Staphylococcus aureus 101; test: MIC against Staphylococcus aureus 101; format: cell-based; conditions: Table 2, Staphylococcus aureus 101, MRSA- and trimethoprim-resistant, clinical isolate; for MIC: read-out: MIC Sa101
[3] = target: T1, purified DHFR of strain Sp1/1 of Streptococcus pneumoniae (Streptococcus pneumoniae serotype 4, UniProt Q54801); format: biochemical; conditions: Table 2; IC50 against purified DHFR of strain Sp1/1
T1 sequence (Q54801 1-168 I100L): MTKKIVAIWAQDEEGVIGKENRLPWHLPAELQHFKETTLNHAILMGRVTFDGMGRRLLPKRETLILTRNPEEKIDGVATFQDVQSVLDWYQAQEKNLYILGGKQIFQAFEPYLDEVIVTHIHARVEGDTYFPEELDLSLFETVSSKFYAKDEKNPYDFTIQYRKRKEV

[4] = target: purified DHFR of strain 157/4696 of Staphylococcus aureus (Staphylococcus aureus, UniProt P13955); test: biochemical
purified DHFR of strain 157/4696 of Staphylococcus aureus, sequence (P13955 whole entry): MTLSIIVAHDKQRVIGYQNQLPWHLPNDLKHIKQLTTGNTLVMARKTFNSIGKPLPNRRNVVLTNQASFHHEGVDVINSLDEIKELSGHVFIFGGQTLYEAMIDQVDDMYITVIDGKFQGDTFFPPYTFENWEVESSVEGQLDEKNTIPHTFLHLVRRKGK

[5] = Table 2, IC50 against purified DHFR of strain 157/4696 (highly trimethoprim-resistant; clinical isolate), read-out: DHFR Sa1

Compound | MIC [1] [µg/mL] | MIC [2] [µg/mL] | IC50 [3] [nM] | IC50 [4] [nM] | MIC Sp1/1 [1] [µg/mL] | MIC Sa101 [2] [µg/mL] | IC50 [4, 5] [nM]
CCOc1cc(Cc2cnc(N)nc2N)cc(OS(=O)(=O)CC(C)C)c1-c1ccc(NCCO)cc1 [Example 36-e, 2-Methyl-propane-1-sulphonic acid 4-(2,4-diamino-pyrimidin-5-ylmethyl)-6-ethoxy-4′-(2-hydroxy-ethylamino)-biphenyl-2-yl ester] | 0.5 (≈ 0.97 µM) | 4 (≈ 7.76 µM) | 2.1 | 250 |  |  | 
CCOc1cc(Cc2cnc(N)nc2N)cc(OS(=O)(=O)CC(C)(C)C)c1-c1ccc(N)c(F)c1 [Example 37-a, 2,2-Dimethyl-propane-1-sulphonic acid 4′-amino-4-(2,4-diamino-pyrimidin-5-ylmethyl)-6-ethoxy-3′-fluoro-biphenyl-2-yl ester] | 0.25 (≈ 0.496 µM) | 4 (≈ 7.94 µM) | 4.5 | 550 |  |  | 
CCOc1cc(Cc2cnc(N)nc2N)cc(OS(=O)(=O)CC(C)(C)C)c1-c1ccc(OC)c(N)c1 [Example 37-b, 2,2-Dimethyl-propane-1-sulphonic acid 3′-amino-4-(2,4-diamino-pyrimidin-5-ylmethyl)-6-ethoxy-4′-methoxy-biphenyl-2-yl ester] | 0.25 (≈ 0.485 µM) | 4 (≈ 7.76 µM) | 1.7 | 260 |  |  | 
CCOc1cc(Cc2cnc(N)nc2N)cc(OS(=O)(=O)CC(C)(C)C)c1-c1ccc(N)cc1 [Example 37-c, 2,2-Dimethyl-propane-1-sulphonic acid 4′-amino-4-(2,4-diamino-pyrimidin-5-ylmethyl)-6-ethoxy-biphenyl-2-yl ester] | 0.5 (≈ 1.03 µM) | 4 (≈ 8.24 µM) | 1.8 | 580 |  |  | 
CCOc1cc(Cc2cnc(N)nc2N)cc(OS(=O)(=O)CC(C)(C)C)c1-c1ccc(NCCO)cc1 [Example 37-d, 2,2-Dimethyl-propane-1-sulphonic acid 4-(2,4-diamino-pyrimidin-5-ylmethyl)-6-ethoxy-4′-(2-hydroxy-ethylamino)-biphenyl-2-yl ester] | 0.25 (≈ 0.472 µM) | 8 (≈ 15.1 µM) | 1.5 | 290 |  |  | 
CCOc1cc(Cc2cnc(N)nc2N)cc(OS(=O)(=O)CC2CC2)c1-c1cccc(N)c1 [Example 38-a, Cyclopropylmethane-sulphonic acid 3′-amino-4-(2,4-diamino-pyrimidin-5-ylmethyl)-6ethoxy-biphenyl-2-yl ester] | 1 (≈ 2.13 µM) | 2 (≈ 4.26 µM) | 5.2 | 160 |  |  | 
CCOc1cc(Cc2cnc(N)nc2N)cc(OS(=O)(=O)CC2CC2)c1-c1ccc(N)c(F)c1 [Example 38-b, Cyclopropylmethane-sulphonic acid 4′-amino-4-(2,4-diamino-pyrimidin-5-ylmethyl)-6-ethoxy-3′-fluoro-4-ylmethyl-biphenyl-2-yl ester] |  |  | 6.5 |  | 1 (≈ 2.05 µM) | 2 (≈ 4.1 µM) | 220
CCOc1cc(Cc2cnc(N)nc2N)cc(OS(=O)(=O)CC2CC2)c1-c1ccc(N)c(C)c1 [Example 38-c, Cyclopropylmethane-sulphonic acid 4′-amino-4-(2,4-diamino-pyrimidin-5-ylmethyl)-6-ethoxg-3′-methyl-biphenyl-2-yl ester] | 0.5 (≈ 1.03 µM) | 2 (≈ 4.14 µM) | 5.8 | 190 |  |  | 
CCOc1cc(Cc2cnc(N)nc2N)cc(OS(=O)(=O)CC2CC2)c1-c1ccc(CN2CCOCC2)c(N)c1 [Example 38-d, Cyclopropylmethane-sulphonic acid 3′-amino-4-(2,4-diamino-pyrimidin-5-ylmethyl)-6-ethoxy-4′-morpholinemethyl-biphenyl-2-yl ester] |  |  | 3.2 |  | 1 (≈ 1.76 µM) | 4 (≈ 7.03 µM) | 240
CCOc1cc(Cc2cnc(N)nc2N)cc(OS(=O)(=O)CC(C)(C)OC)c1-c1cccc(N)c1 [Example 39-a, (2-Methoxy-2-methyl-propane)-1-sulphonic acid 3′-amino-4-(2,4-diamino-pyrimidin-5-ylmethyl)-6-ethoxy-biphenyl-2-yl ester] | 1 (≈ 1.99 µM) | 4 (≈ 7.97 µM) | 4.2 | 390 |  |  | 
CCOc1cc(Cc2cnc(N)nc2N)cc(OS(=O)(=O)CC(C)(C)OC)c1-c1ccc(N)c(C)c1 [Example 39-b, (2-Methoxy-2-methyl-propane)-1-sulphonic acid 4′-amino-4-(2,4-diamino-pyrimidin-5-ylmethyl)-6-ethoxy-3′-methyl-biphenyl-2-yl ester] | 0.5 (≈ 0.97 µM) | 4 (≈ 7.76 µM) | 4.9 | 250 |  |  | 
CCOc1cc(Cc2cnc(N)nc2N)cc(OS(=O)(=O)CC(C)(C)OC)c1-c1ccc(N)c(F)c1 [Example 39-c, (2-Methoxg-2-methyl-propane)-1-sulphonic acid 4′-amino-4-(2,4-diamino-pyrimidin-5-ylmethyl)-6-ethoxy-3′-fluoro-4-ylmethyl-biphenyl-2-yl ester] |  |  | 14 |  | 1 (≈ 1.92 µM) | 8 (≈ 15.4 µM) | 1000
CCOc1cc(Cc2cnc(N)nc2N)cc(OS(=O)(=O)CC(C)(C)OC)c1-c1ccc(CN2CCOCC2)c(N)c1 [Example 39-d, (2-Methoxy-2-methyl-propane)-1-sulphonic acid 3′-amino-4-(2,4-diamino-pyrimidin-5-ylmethyl)-6-ethoxy-4′-morpholinemethyl-biphenyl-2-yl ester] |  |  | 2.6 |  | 2 (≈ 3.33 µM) | 8 (≈ 13.3 µM) | 410
CCOc1cc(Cc2cnc(N)nc2N)cc(OS(=O)(=O)C2CCC2)c1-c1cccc(N)c1 [Example 40-a, Cyclobutane-sulphonic acid 3′-amino-4-(2,4-diamino-pyrimidin-5-ylmethyl)-6-ethoxy-biphenyl-2-yl ester] | 1 (≈ 2.13 µM) | 2 (≈ 4.26 µM) | 6.5 | 52 |  |  | 
CCOc1cc(Cc2cnc(N)nc2N)cc(OS(=O)(=O)C2CCC2)c1-c1ccc(N)c(F)c1 [Example 40-b, Cylobutane-sulphonic acid 4′-amino-4-(2,4-diamino-pyrimidin-5-ylmethyl)-6-ethoxy-3′-fluoro-4-ylmethyl-biphenyl-2-yl ester] |  |  | 27 |  | 1 (≈ 2.05 µM) | 2 (≈ 4.1 µM) | 310
CCOc1cc(Cc2cnc(N)nc2N)cc(OS(=O)(=O)C2CCC2)c1-c1ccc(CN2CCOCC2)c(N)c1 [Example 40-d, Cyclobutane-sulphonic acid 3′-amino-4-(2,4-diamino-pyrimidin-5-ylmethyl)-6-ethoxy-4′-morpholinomethyl-biphenyl-2-yl ester] | 2 (≈ 3.52 µM) | 2 (≈ 3.52 µM) | 17 | 130 |  |  | 
CCOc1cc(Cc2cnc(N)nc2N)cc(OS(=O)(=O)C2CCC2)c1-c1cc(N)cc(F)c1 [Example 40-e, Cyclobutane-sulphonic acid 3′-amino-4-(2,4-diamino-pyrimidin-5-ylmethyl)-6-ethoxy-5′-fluoro-biphenyl-2-yl ester] | 2 (≈ 4.1 µM) | 2 (≈ 4.1 µM) | 79 | 160 |  |  | 
